Results from patent US9302999B2, “Substituted triazoles as herbicides” (E. I. DU PONT DE NEMOURS AND COMPANY, priority 2012, dated 2016).

Legend:
Format in all cases: in vivo
[1] = tested on: barnyardgrass (Echinochloa crus-galli); test: Test A pre-/postemergence: barnyardgrass
Procedure, shortened: (§1)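 Rating scale 0–100 (100 = complete control), visual, ~10 days after application in the greenhouse. Applications: preemergence directed soil spray; postemergence at 1–2 leaves.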

[2] = tested on: crabgrass, large (large crabgrass, Digitaria sanguinalis); test: Test A pre-/postemergence: crabgrass, large
Procedure, shortened: as §1

[3] = tested on: foxtail, giant (giant foxtail, Setaria faberii); test: Test A pre-/postemergence: foxtail, giant
Procedure, shortened: as §1

[4] = tested on: morningglory (Ipomoea spp.); test: Test A pre-/postemergence: morningglory
Procedure, shortened: as §1

[5] = tested on: pigweed (Amaranthus retroflexus); test: Test A pre-/postemergence: pigweed
Procedure, shortened: as §1

[6] = tested on: velvetleaf (Abutilon theophrasti); test: Test A pre-/postemergence: velvetleaf
Procedure, shortened: as §1

[7] = tested on: wheat (Triticum aestivum); test: Test A pre-/postemergence: wheat
Procedure, shortened: as §1

corn (Zea mays) = test: Test A pre-/postemergence: corn
Procedure, shortened: as §1

rice (Oryza sativa) = test: Test B flooded paddy: rice; conditions: Flood, applied to paddy water at 2-leaf stage, visually evaluated after 13 to 15 days
Procedure, shortened: (§2)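 Visual ratings on a 0–100 scale, where 0 means no effect and 100 means complete control, were assigned by comparison with controls 13 to 15 days after treatment. Compounds went into paddy water over 2-leaf plants flooded to 3 cm.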

[8] = tested on: sedge, umbrella (small-flower umbrella sedge Cyperus difformis); test: Test B flooded paddy: sedge, umbrella; conditions: Flood, applied to paddy water at 2-leaf stage, visually evaluated after 13 to 15 days
Procedure, shortened: as §2

[9] = tested on: ducksalad (Heteranthera limosa); test: Test B flooded paddy: ducksalad; conditions: Flood, applied to paddy water at 2-leaf stage, visually evaluated after 13 to 15 days
Procedure, shortened: as §2

[10] = tested on: barnyardgrass (Echinochloa crus-galli); test: Test B flooded paddy: barnyardgrass; conditions: Flood, applied to paddy water at 2-leaf stage, visually evaluated after 13 to 15 days
Procedure, shortened: as §2

[11] = Postemergence, 125 g ai/ha, 0 to 100 scale, 0 is no effect, 100 is complete control
[12] = Postemergence, 500 g ai/ha, 0 to 100 scale, 0 is no effect, 100 is complete control
[13] = Preemergence, 125 g ai/ha, 0 to 100 scale where 0 is no effect and 100 is complete control
[14] = Preemergence, 500 g ai/ha, 0 to 100 scale (0 no effect, 100 complete control)

Row | SMILES | Plant response rating, Barnyardgrass [1, 11] | Barnyardgrass plant response rating [1, 12] | Plant response rating, Barnyardgrass [1, 13] | Plant response rating, Barnyardgrass [1, 14] | Plant response rating, Crabgrass, Large [2, 11] | Crabgrass, Large plant response rating [2, 12] | Plant response rating, Crabgrass, Large [2, 13] | Plant response rating, Crabgrass, Large [2, 14] | Plant response rating, Foxtail, Giant [3, 11] | Foxtail, Giant plant response rating [3, 12] | Plant response rating, Foxtail, Giant [3, 13] | Plant response rating, Foxtail, Giant [3, 14] | Plant response rating, Morningglory [4, 11] | Morningglory plant response rating [4, 12] | Plant response rating, Morningglory [4, 13] | Plant response rating, Morningglory [4, 14] | Plant response rating, Pigweed [5, 11] | Pigweed plant response rating [5, 12] | Plant response rating, Pigweed [5, 13] | Plant response rating, Pigweed [5, 14] | further results
1 | CC(C)(C)c1nn(-c2ccc(F)cc2)nc1Cc1ccnc(C(F)(F)F)c1 [Compound 176] | 0 | 0 | 0 | 0 | 0 | 0 | 0 | 0 | 0 | 0 | 0 | 0 | 0 | 0 | 0 | 0 | 0 | 0 | 0 | 0 | Plant response rating, Velvetleaf [6, 11]: 0; Velvetleaf plant response rating [6, 12]: 0; Plant response rating, Velvetleaf [6, 13]: 0; Plant response rating, Velvetleaf [6, 14]: 0; Plant response rating, Wheat [7, 11]: 0; Wheat plant response rating [7, 12]: 0; Plant response rating, Wheat [7, 13]: 0; Plant response rating, Wheat [7, 14]: 0; Plant response rating, Corn (corn (Zea mays); [11]): 0; Corn plant response rating (corn (Zea mays); [12]): 0; Plant response rating, Corn (corn (Zea mays); [13]): 0; Plant response rating, Corn (corn (Zea mays); [14]): 0; Plant response rating, Rice (0 to 100 scale, 0 is no effect, 100 is complete control) (rice (Oryza sativa); 125 g ai/ha): 0; Plant response rating, Sedge, Umbrella (0 to 100 scale, 0 is no effect, 100 is complete control) ([8]; 125 g ai/ha): 0; Plant response rating, Ducksalad (0 to 100 scale, 0 is no effect, 100 is complete control) ([9]; 125 g ai/ha): 0; Plant response rating, Barnyardgrass (0 to 100 scale, 0 is no effect, 100 is complete control) ([10]; 125 g ai/ha): 0
2 | CCOc1nn(-c2ccc(F)cc2)nc1C(=O)c1ccnc(C(F)(F)F)c1 [Compound 177] | 0 | 20 | 0 | 70 | 10 | 60 | 90 | 100 | 20 | 70 | 90 | 100 | 90 | 100 | 20 | 40 | 60 | 100 | 10 | 50 | Plant response rating, Velvetleaf [6, 11]: 20; Velvetleaf plant response rating [6, 12]: 50; Plant response rating, Velvetleaf [6, 13]: 0; Plant response rating, Velvetleaf [6, 14]: 20; Plant response rating, Wheat [7, 11]: 20; Wheat plant response rating [7, 12]: 30; Plant response rating, Wheat [7, 13]: 0; Plant response rating, Wheat [7, 14]: 0; Plant response rating, Corn (corn (Zea mays); [11]): 20; Corn plant response rating (corn (Zea mays); [12]): 30; Plant response rating, Corn (corn (Zea mays); [13]): 0; Plant response rating, Corn (corn (Zea mays); [14]): 0; Plant response rating, Rice (0 to 100 scale, 0 is no effect, 100 is complete control) (rice (Oryza sativa); 125 g ai/ha): 0; Plant response rating, Sedge, Umbrella (0 to 100 scale, 0 is no effect, 100 is complete control) ([8]; 125 g ai/ha): 40; Plant response rating, Ducksalad (0 to 100 scale, 0 is no effect, 100 is complete control) ([9]; 125 g ai/ha): 0; Plant response rating, Barnyardgrass (0 to 100 scale, 0 is no effect, 100 is complete control) ([10]; 125 g ai/ha): 0
3 | CCc1nn(-c2ccc(F)c(C(F)(F)F)c2)nc1Oc1ccnc(C(F)(F)F)c1 [Compound 180] | 50 | 80 | 60 | 80 | 90 | 90 | 100 | 100 | 90 | 90 | 100 | 100 | 100 | 100 | 40 | 70 | 100 | 100 | 100 | 100 | Plant response rating, Velvetleaf [6, 11]: 70; Velvetleaf plant response rating [6, 12]: 100; Plant response rating, Velvetleaf [6, 13]: 50; Plant response rating, Velvetleaf [6, 14]: 60; Plant response rating, Wheat [7, 11]: 30; Wheat plant response rating [7, 12]: 40; Plant response rating, Wheat [7, 13]: 20; Plant response rating, Wheat [7, 14]: 40; Plant response rating, Corn (corn (Zea mays); [11]): 20; Corn plant response rating (corn (Zea mays); [12]): 30; Plant response rating, Corn (corn (Zea mays); [13]): 10; Plant response rating, Corn (corn (Zea mays); [14]): 20; Plant response rating, Rice (0 to 100 scale, 0 is no effect, 100 is complete control) (rice (Oryza sativa); 125 g ai/ha): 30; Plant response rating, Sedge, Umbrella (0 to 100 scale, 0 is no effect, 100 is complete control) ([8]; 125 g ai/ha): 70; Plant response rating, Ducksalad (0 to 100 scale, 0 is no effect, 100 is complete control) ([9]; 125 g ai/ha): 60; Plant response rating, Barnyardgrass (0 to 100 scale, 0 is no effect, 100 is complete control) ([10]; 125 g ai/ha): 0
4 | CCc1nn(-c2ccc(F)cc2F)nc1Oc1ccnc(C(F)F)c1 [Compound 181] | 0 | 30 | 0 | 20 | 50 | 50 | 10 | 80 | 30 | 80 | 10 | 80 | 90 | 90 | 0 | 10 | 90 | 100 | 60 | 90 | Plant response rating, Velvetleaf [6, 11]: 30; Velvetleaf plant response rating [6, 12]: 70; Plant response rating, Velvetleaf [6, 13]: 0; Plant response rating, Velvetleaf [6, 14]: 0; Plant response rating, Wheat [7, 11]: 0; Wheat plant response rating [7, 12]: 20; Plant response rating, Wheat [7, 13]: 0; Plant response rating, Wheat [7, 14]: 0; Plant response rating, Corn (corn (Zea mays); [11]): 0; Corn plant response rating (corn (Zea mays); [12]): 10; Plant response rating, Corn (corn (Zea mays); [13]): 0; Plant response rating, Corn (corn (Zea mays); [14]): 0; Plant response rating, Rice (0 to 100 scale, 0 is no effect, 100 is complete control) (rice (Oryza sativa); 125 g ai/ha): 20; Plant response rating, Sedge, Umbrella (0 to 100 scale, 0 is no effect, 100 is complete control) ([8]; 125 g ai/ha): 0; Plant response rating, Ducksalad (0 to 100 scale, 0 is no effect, 100 is complete control) ([9]; 125 g ai/ha): 0; Plant response rating, Barnyardgrass (0 to 100 scale, 0 is no effect, 100 is complete control) ([10]; 125 g ai/ha): 0
5 | CCCCc1nn(-c2ccc(C(F)(F)F)cc2)nc1Oc1ccnc(C(F)(F)F)c1 [Compound 184] | 10 | 30 | 0 | 50 | 50 | 90 | 70 | 100 | 30 | 80 | 70 | 90 | 30 | 100 | 0 | 10 | 100 | 100 | 90 | 100 | Plant response rating, Velvetleaf [6, 11]: 40; Velvetleaf plant response rating [6, 12]: 90; Plant response rating, Velvetleaf [6, 13]: 0; Plant response rating, Velvetleaf [6, 14]: 30; Plant response rating, Wheat [7, 11]: 10; Wheat plant response rating [7, 12]: 20; Plant response rating, Wheat [7, 13]: 0; Plant response rating, Wheat [7, 14]: 0; Plant response rating, Corn (corn (Zea mays); [11]): 10; Corn plant response rating (corn (Zea mays); [12]): 20; Plant response rating, Corn (corn (Zea mays); [13]): 0; Plant response rating, Corn (corn (Zea mays); [14]): 0; Plant response rating, Rice (0 to 100 scale, 0 is no effect, 100 is complete control) (rice (Oryza sativa); 250 g ai/ha): 25; Plant response rating, Sedge, Umbrella (0 to 100 scale, 0 is no effect, 100 is complete control) ([8]; 250 g ai/ha): 60; Plant response rating, Ducksalad (0 to 100 scale, 0 is no effect, 100 is complete control) ([9]; 250 g ai/ha): 0; Plant response rating, Barnyardgrass (0 to 100 scale, 0 is no effect, 100 is complete control) ([10]; 250 g ai/ha): 25
